Format in all cases: functional
For experiment [1], the system named is Escherichia coli. Put plainly: Antibacterial activity against Escherichia coli 11732 producing beta lactamase CTX-M-15 by broth microdilution method. For orientation: Dilution methods test growth across graded concentrations, often in twofold steps.
Experiment [2] relates to Staphylococcus aureus. Put plainly: Antibacterial activity against Staphylococcus aureus 4116 producing betalactamase PC1 by broth microdilution method.
Experiment [3] relates to Serratia marcescens. Put plainly: Antibacterial activity against Serratia marcescens 4104 producing beta lactamase AmpC by broth microdilution method.
Experiment [4] concerns Pseudomonas aeruginosa. Briefly: Antibacterial activity against Pseudomonas aeruginosa 7052 producing beta lactamase VIM2 by broth microdilution method.
For experiment [5], the system named is Pseudomonas aeruginosa. Put plainly: Antibacterial activity against Pseudomonas aeruginosa HPA101-1477 producing beta lactamase IMP1 by broth microdilution method.
The test system of experiment [6] is Pseudomonas aeruginosa. Put plainly: Antibacterial activity against Pseudomonas aeruginosa 4352 producing beta lactamase AmpC by broth microdilution method.
Experiment [7] has as its system Providencia stuartii. Put plainly: Antibacterial activity against Providencia stuartii 2772 producing beta lactamase AmpC by broth microdilution method.
Experiment [8] deals with Klebsiella oxytoca. Briefly: Antibacterial activity against Klebsiella oxytoca 4076 producing beta lactamase K1 by broth microdilution method.
Experiment [9] concerns Escherichia coli. Put plainly: Antibacterial activity against Escherichia coli 6226 producing beta lactamase KPC2 by broth microdilution method.
Experiment [10] deals with Klebsiella pneumoniae. Put plainly: Antibacterial activity against Klebsiella pneumoniae 4238 producing beta lactamase SHV1 by broth microdilution method.
For experiment [11], the system named is Morganella morganii. Put plainly: Antibacterial activity against Morganella morganii 2574 producing beta lactamase AmpC by broth microdilution method.
Experiment [12] deals with Serratia marcescens. Put plainly: Antibacterial activity against Serratia marcescens 7554 producing beta lactamase SME3 by broth microdilution method.
The subject of experiment [13] is Klebsiella pneumoniae. Briefly: Antibacterial activity against Klebsiella pneumoniae 4094 producing beta lactamase TEM26 by broth microdilution method.
Experiment [14] concerns Pseudomonas aeruginosa. Briefly: Antibacterial activity against Pseudomonas aeruginosa MK-1184 producing beta lactamase AmpC by broth microdilution method.
For experiment [15], the system named is Escherichia coli. Briefly: Antibacterial activity against Escherichia coli producing beta lactamase TEM1 by broth microdilution method.
Experiment [16] deals with Pseudomonas aeruginosa. Put plainly: Antibacterial activity against Pseudomonas aeruginosa 4083 producing beta lactamase OXA10 by broth microdilution method.
In experiment [17] the test system is Pseudomonas aeruginosa. Put plainly: Antibacterial activity against Pseudomonas aeruginosa 18SH producing beta lactamase AmpC by broth microdilution method.
Experiment [18] has as its system Enterobacter cloacae. Briefly: Antibacterial activity against Enterobacter cloacae 908R producing beta lactamase AmpC by broth microdilution method.
Experiment [19] concerns Enterobacter cloacae. Briefly: Antibacterial activity against Enterobacter cloacae 4080 producing beta lactamase AmpC (P99) by broth microdilution method.
The test system of experiment [20] is Enterobacter cloacae. Briefly: Antibacterial activity against Enterobacter cloacae 4092 producing beta lactamase AmpC (E2) by broth microdilution method.
Experiment [21] has as its system Enterobacter cloacae. Put plainly: Antibacterial activity against Enterobacter cloacae 4081 producing beta lactamase AmpC (E2) by broth microdilution method.
In experiment [22] the test system is Staphylococcus aureus. Briefly: Antibacterial activity against methicillin-resistant Staphylococcus aureus.
Experiment [23] concerns Staphylococcus aureus. Put plainly: Antibacterial activity against methicillin-susceptible Staphylococcus aureus.

≈ marks a conversion by molar mass, not a printed value.

As usually defined, the MIC is the smallest concentration in the dilution series that meets the test's criterion for growth inhibition. A lower MIC goes with inhibition by little substance. One may read the MIC90 as the lowest concentration that inhibits either 90% of growth or 90% of the strains tested, depending on the study. A higher MIC90 goes with weaker potency.

Consider `CO/N=C(\C(=O)N[C@@H]1C(=O)N2C(C(=O)[O-])=C(C[N+]3(C)CCCC3)CS[C@H]12)c1csc(N)n1`, for which the MIC in [1] was 16 µg/mL (≈ 33.3 µM); in experiment [2], 2 µg/mL (≈ 4.16 µM); in experiment [3] it was 0.12 µg/mL (≈ 0.25 µM); in experiment [4], 128 µg/mL (≈ 266 µM); in experiment [5], more than 32 µg/mL; in experiment [6], 2 µg/mL (≈ 4.16 µM). For the same compound, the MIC is 0.25 µg/mL (≈ 0.52 µM) in [7]; 2 µg/mL (≈ 4.16 µM) in experiment [8]; 16 µg/mL (≈ 33.3 µM) in experiment [9]; 0.25 µg/mL (≈ 0.52 µM) in experiment [10]; 0.03 µg/mL (≈ 0.0624 µM) in experiment [11]; 0.25 µg/mL (≈ 0.52 µM) in experiment [12]. The MIC in experiment [13] came to 4 µg/mL (≈ 8.32 µM); in experiment [14] it was 32 µg/mL (≈ 66.6 µM); in [15] it was 0.12 µg/mL (≈ 0.25 µM); in [16] it was 8 µg/mL (≈ 16.6 µM); in experiment [17], 32 µg/mL (≈ 66.6 µM).

For the compound `CC(C)(O/N=C(\C(=O)N[C@@H]1C(=O)N2C(C(=O)[O-])=C(C[n+]3ccccc3)CS[C@H]12)c1csc(N)n1)C(=O)O` [CEFTAZIDIME], the MIC in experiment [1] is 32 µg/mL (≈ 58.5 µM); in experiment [2], 4 µg/mL (≈ 7.32 µM); in experiment [18] it was more than 64 µg/mL; in experiment [19], 64 µg/mL (≈ 117 µM); in experiment [3] it was 0.25 µg/mL (≈ 0.457 µM); in [4], 64 µg/mL (≈ 117 µM). The MIC in experiment [5] was more than 32 µg/mL; in [6] it was 4 µg/mL (≈ 7.32 µM); in experiment [7] it was 4 µg/mL (≈ 7.32 µM); in experiment [8] it was 0.5 µg/mL (≈ 0.915 µM); in [20], 1 µg/mL (≈ 1.83 µM); in experiment [9], 32 µg/mL (≈ 58.5 µM). Also, the MIC was more than 128 µg/mL in [21]; 2 µg/mL (≈ 3.66 µM) in experiment [10]; 1 µg/mL (≈ 1.83 µM) in experiment [11]; 0.5 µg/mL (≈ 0.915 µM) in [12]; more than 256 µg/mL in [13]; 32 µg/mL (≈ 58.5 µM) in experiment [14]. Further, the MIC in [15] is 0.5 µg/mL (≈ 0.915 µM); in [16], 2 µg/mL (≈ 3.66 µM); in experiment [17], 32 µg/mL (≈ 58.5 µM).

`Nc1nc(/C(=N/O)C(=O)N[C@@H]2C(=O)N3C(C(=O)O)=C(/C=C4\CCN([C@@H]5CCNC5)C4=O)CS[C@H]23)ns1` [CEFTOBIPROLE]: the minimal inhibitory concentration (MIC) in [1] was more than 128 µg/mL; in experiment [2], 0.25 µg/mL (≈ 0.468 µM); in [18], 4 µg/mL (≈ 7.48 µM); in experiment [19] it was 2 µg/mL (≈ 3.74 µM); in experiment [3] it was 0.12 µg/mL (≈ 0.224 µM); in [4], more than 128 µg/mL. Further, the MIC is more than 32 µg/mL in experiment [5]; 4 µg/mL (≈ 7.48 µM) in experiment [6]; 0.015 µg/mL (≈ 0.0281 µM) in experiment [7]; more than 32 µg/mL in [8]; 0.12 µg/mL (≈ 0.224 µM) in experiment [20]; 16 µg/mL (≈ 29.9 µM) in [9]. The MIC turned out to be 1 µg/mL (≈ 1.87 µM) in experiment [21]; 0.5 µg/mL (≈ 0.935 µM) in experiment [10]; 0.03 µg/mL (≈ 0.0561 µM) in experiment [11]; 0.25 µg/mL (≈ 0.468 µM) in [12]; 0.25 µg/mL (≈ 0.468 µM) in experiment [13]; 32 µg/mL (≈ 59.9 µM) in [14]. Further, the MIC in experiment [15] is 0.5 µg/mL (≈ 0.935 µM); in experiment [16] it was 128 µg/mL (≈ 239 µM); in experiment [17], 16 µg/mL (≈ 29.9 µM). Besides, the MIC90 in experiment [22] is 2 µg/mL (≈ 3.74 µM); in experiment [23] it was 0.5 µg/mL (≈ 0.935 µM).

For the origin of these results see ChEMBL document CHEMBL1143427, “Interactions of ceftobiprole with beta-lactamases from molecular classes A to D” (Antimicrob Agents Chemother, 2007).
